According to patent US9273057B2 (Bristol-Myers Squibb Company, priority 2012, dated 2016):
Counter-ions that a name gives are not always drawn.

Molecular target: CK2A1 (CK2α/β) (Homo sapiens, UniProt P68400)
Assay: CK2 kinase assay, CK2A1 (CK2α/β)
Type: biochemical
Conditions: Table A; read-out: CK2A1 (CK2α/β) (IC50)

Chain of CK2A1 (CK2α/β) (P68400 whole entry, species assumed): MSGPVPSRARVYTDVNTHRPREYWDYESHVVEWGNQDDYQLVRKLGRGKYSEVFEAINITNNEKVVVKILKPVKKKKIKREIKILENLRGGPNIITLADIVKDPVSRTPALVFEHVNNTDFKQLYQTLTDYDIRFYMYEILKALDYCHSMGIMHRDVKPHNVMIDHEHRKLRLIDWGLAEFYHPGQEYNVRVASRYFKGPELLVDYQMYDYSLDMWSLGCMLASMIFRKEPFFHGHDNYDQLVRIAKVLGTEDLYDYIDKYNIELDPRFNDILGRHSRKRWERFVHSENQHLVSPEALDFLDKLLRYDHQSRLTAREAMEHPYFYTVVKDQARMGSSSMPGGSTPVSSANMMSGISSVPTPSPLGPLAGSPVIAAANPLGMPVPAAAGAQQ
Chain of CK2A1 (CK2α/β) (P67870 whole entry partner, species assumed): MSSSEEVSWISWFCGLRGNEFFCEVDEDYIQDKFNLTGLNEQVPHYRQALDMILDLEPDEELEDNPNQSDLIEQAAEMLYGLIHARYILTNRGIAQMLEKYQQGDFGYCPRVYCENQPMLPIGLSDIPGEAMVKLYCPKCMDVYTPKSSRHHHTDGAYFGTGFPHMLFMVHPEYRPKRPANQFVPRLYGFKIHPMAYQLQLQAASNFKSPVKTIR

Question: COCC(O)CN1CCN(c2cc(C(F)F)cc(Nc3nc(NC4CC4)c4ncc(C#N)n4n3)c2Cl)CC1 (racemic) [Example 250, (+/−) 2-((2-chloro-5-(difluoromethyl)-3-(4-(2-hydroxy-3-methoxypropyl)-1-piperazinyl)phenyl)amino)-4-(cyclopropylamino)imidazo[2,1-f][1,2,4]triazine-7-carbonitrile] was tested. Which IC50 did it give?
Answer: 0.73 nM

Question: With N#Cc1cnc2c(NC3CC3)nc(Nc3cc(C(F)F)cc(N4CC(NCC(O)CO)C4)c3Cl)nn12 (racemic) [Example 261, (+/−) 2-((2-chloro-5-(difluoromethyl)-3-(3-((2,3-dihydroxypropyl)amino)-1-azetidinyl)phenyl)amino)-4-(cyclopropylamino)imidazo[2,1-f][1,2,4]triazine-7-carbonitrile] as the molecule, how does the IC50 read?
Answer: 2.44 nM

Question: How did the IC50 turn out when COC(CO)CNC1CN(c2cc(C(F)F)cc(Nc3nc(NC4CC4)c4ncc(C#N)n4n3)c2Cl)C1 (racemic) [Example 262, (+/−) 2-((2-chloro-5-(difluoromethyl)-3-(3-((3-hydroxy-2-methoxypropyl)amino)-1-azetidinyl)phenyl)amino)-4-(cyclopropylamino)imidazo[2,1-f][1,2,4]triazine-7-carbonitrile] was run?
Answer: 5 nM

Question: N#Cc1cnc2c(NC3CC3)nc(Nc3cc(C(F)F)cc(N4CCN(C5CCOC5)CC4)c3Cl)nn12 (racemic) [Example 265, (+/−) 2-(2-chloro-5-(difluoromethyl)-3-(4-(tetrahydrofuran-3-yl)piperazin-1-yl)phenylamino)-4-(cyclopropylamino)imidazo[1,2-f][1,2,4]triazine-7-carbonitrile] was tested. Which IC50 did it give?
Answer: 3.49 nM

Question: CC(C)(O)C1CN(c2cc(C(F)F)cc(Nc3nc(NC4CC4)c4ncc(C#N)n4n3)c2Cl)CCO1 (racemic) [Example 280, (+/−) 2-((2-chloro-5-(difluoromethyl)-3-(2-(1-hydroxy-1-methylethyl)-4-morpholinyl)phenyl)amino)-4-(cyclopropylamino)imidazo[2,1-f][1,2,4]triazine-7-carbonitrile] was tested. Which IC50 did it give?
Answer: 2.09 nM

Question: CC[C@H]1CN(c2cc(C#N)cc(Nc3nc(NC4CC4)c4ncc(C#N)n4n3)c2Cl)C[C@H]1NC(=O)OC (racemic) [Example 292, (+/−) methyl ((3S,4S)-1-(2-chloro-5-cyano-3-((7-cyano-4-(cyclopropylamino)imidazo[2,1-f][1,2,4]triazin-2-yl)amino)phenyl)-4-ethyl-3-pyrrolidinyl)carbamate] was tested. Which IC50 did it give?
Answer: 2 nM

Question: CC[C@H]1CN(c2cc(C#N)cc(Nc3nc(NC4CC4)c4ncc(C#N)n4n3)c2Cl)CC[C@H]1NC(=O)OC (racemic) [Example 296, (+/−) methyl ((3S,4R)-1-(2-chloro-5-cyano-3-((7-cyano-4-(cyclopropylamino)imidazo[2,1-f][1,2,4]triazin-2-yl)amino)phenyl)-3-ethyl-4-piperidinyl)carbamate] was tested. Which IC50 did it give?
Answer: 0.94 nM

Question: For COC(=O)N[C@H]1CN(C2CN(c3cc(C#N)cc(Nc4nc(NC5CC5)c5ncc(C#N)n5n4)c3Cl)C2)C[C@@H]1OC (racemic) [Example 297, (+/−) methyl ((3S,4S)-1-(1-(2-chloro-5-cyano-3-((7-cyano-4-(cyclopropylamino)imidazo[2,1-f][1,2,4]triazin-2-yl)amino)phenyl)-3-azetidinyl)-4-methoxy-3-pyrrolidinyl)carbamate], which IC50 is on record?
Answer: 3.05 nM

Question: N#Cc1cc(Nc2nc(NC3CC3)c3ncc(C#N)n3n2)c(Cl)c(N2CCOC(C(=O)N3CCOCC3)C2)c1 (racemic) [Example 300, (+/−)2-((2-chloro-5-cyano-3-(2-(morpholine-4-carbonyl)morpholino)phenyl)amino)-4-(cyclopropylamino)imidazo[2,1-J][1,2,4]triazine-7-carbonitrile] was tested. Which IC50 did it give?
Answer: 1.62 nM

Question: N#Cc1cc(Nc2nc(NC3CC3)c3ncc(C#N)n3n2)c(Cl)c(N2CC[C@@H](NC3COC3)[C@H](O)C2)c1 (racemic) [Example 301, (+/−)2-((2-chloro-5-cyano-3-((3R,4R)-3-hydroxy-4-(oxetan-3-ylamino)piperidin-1-yl)phenyl)amino)-4-(cyclopropylamino)imidazo[2,1-f][1,2,4]triazine-7-carbonitrile, HCl] was tested. Which IC50 did it give?
Answer: 0.72 nM

Question: For CO[C@@H]1CN(c2cc(C#N)cc(Nc3nc(NC4CC4)c4ncc(C#N)n4n3)c2Cl)C[C@H]1O (racemic) [Example 305, (+/−)-2-((2-chloro-5-cyano-3-((3R,4R)-3-hydroxy-4-methoxypyrrolidin-1-yl)phenyl)amino)-4-(cyclopropylamino)imidazo[2,1-f][1,2,4]triazine-7-carbonitrile, HCl], which IC50 is on record?
Answer: 0.65 nM

Question: With N#Cc1cc(Nc2nc(NC3CC3)c3ncc(C#N)n3n2)c(Cl)c(N2CC[C@@H](N3CCOCC3)[C@H](O)C2)c1 (racemic) [Example 306, (+/−)-2-((2-chloro-5-cyano-3-((3R,4R)-3-hydroxy-4-morpholinopiperidin-1-yl)phenyl)amino)-4-(cyclopropylamino)imidazo[2,1-f][1,2,4]triazine-7-carbonitrile] as the molecule, how does the IC50 read?
Answer: 1.29 nM

Question: For N#Cc1cc(Nc2nc(NC3CC3)c3ncc(C#N)n3n2)c(Cl)c(N2CC[C@H]3NC(=O)CO[C@@H]3C2)c1 (racemic) [Example 310, (+/−)-2-((2-chloro-5-cyano-3-((4aR,8aR)-2-oxohexahydro-1H-pyrido[3,4-b][1,4]oxazin-6(7H)-yl)phenyl)amino)-4-(cyclopropylamino)imidazo[2,1-f][1,2,4]triazine-7-carbonitrile, 2HCl], which IC50 is on record?
Answer: 2.87 nM

Question: Which IC50 does the source give for N#Cc1cc(Nc2nc(NC3CC3)c3ncc(C#N)n3n2)c(Cl)c(N2CCN(C3COC3)C(CF)C2)c1 (racemic) [Example 312, (+/−)2-((2-chloro-5-cyano-3-(3-(fluoromethyl)-4-(oxetan-3-yl)piperazin-1-yl)phenyl)amino)-4-(cyclopropylamino)imidazo[2,1-f][1,2,4]triazine-7-carbonitrile] here?
Answer: 0.37 nM

Question: CCNc1nc(Nc2cc(C#N)cc(N3CC[C@@H](NC(=O)OC)[C@H](OC(=O)C(C)OP(=O)(O)O)C3)c2Cl)nn2c(C#N)cnc12 (mixture of isomers) [Example 339, (+/−)-(3R,4R)-1-(2-chloro-5-cyano-3-((7-cyano-4-(ethylamino)imidazo[2,1-f][1,2,4]triazin-2-yl)amino)phenyl)-4-((methoxycarbonyl)amino)piperidin-3-yl 2-(phosphonooxy)propanoate] was tested. Which IC50 did it give?
Answer: 0.47 nM

Question: How did the IC50 turn out when CCNc1nc(Nc2cc(C#N)cc(N3CCOC(C(C)(C)O)C3)c2Cl)nn2c(C#N)cnc12 (racemic) [Example 361, (+/−) 2-((2-chloro-5-cyano-3-(2-(1-hydroxy-1-methylethyl)-4-morpholinyl)phenyl)amino)-4-(ethylamino)imidazo[2,1-f][1,2,4]triazine-7-carbonitrile] was run?
Answer: 0.85 nM

Question: How did the IC50 turn out when CCNc1nc(Nc2cc(C#N)cc(N3CCC(NC)C3)c2Cl)nn2c(C#N)cnc12 (racemic) [Example 362, (+/−) 2-((2-chloro-5-cyano-3-(3-(methylamino)-1-pyrrolidinyl)phenyl)amino)-4-(ethylamino)imidazo[2,1-f][1,2,4]triazine-7-carbonitrile] was run?
Answer: 0.84 nM

Question: How did the IC50 turn out when CCNc1nc(Nc2cc(C#N)cc(N3CC[C@H]4NC(=O)CO[C@@H]4C3)c2Cl)nn2c(C#N)cnc12 (racemic) [Example 370, (+/−)-2-((2-chloro-5-cyano-3-((4aR,8aR)-2-oxohexahydro-1H-pyrido[3,4-b][1,4]oxazin-6(7H)-yl)phenyl)amino)-4-(ethylamino)imidazo[2,1-f][1,2,4]triazine-7-carbonitrile] was run?
Answer: 0.35 nM

Question: CCNc1nc(Nc2cc(C#N)cc(N3CC[C@H]4NCCO[C@@H]4C3)c2Cl)nn2c(C#N)cnc12 (racemic) [Example 371, (+/−)-2-((2-chloro-5-cyano-3-((4aR,8aR)-hexahydro-1H-pyrido[3,4-b][1,4]oxazin-6(7H)-yl)phenyl)amino)-4-(ethylamino)imidazo[2,1-f][1,2,4]triazine-7-carbonitrile] was tested. Which IC50 did it give?
Answer: 3.61 nM

Question: Which IC50 does the source give for CCNc1nc(Nc2cc(C#N)cc(N3CC[C@@H]4[C@@H](C3)OCCN4C(=O)OC)c2Cl)nn2c(C#N)cnc12 (racemic) [Example 372, (+/−)-(4aR,8aR)-methyl 6-(2-chloro-5-cyano-3-((7-cyano-4-(ethylamino)imidazo[2,1-f][1,2,4]triazin-2-yl)amino)phenyl)octahydro-1H-pyrido[3,4-b][1,4]oxazine-1-carboxylate] here?
Answer: 0.94 nM

Question: For CCNc1nc(Nc2cc(C#N)cc(N3CC[C@@H]4[C@@H](C3)OCCN4C)c2Cl)nn2c(C#N)cnc12 (racemic) [Example 373, (+/−)-2-((2-chloro-5-cyano-3-((4aR,8 aR)-1-methylhexahydro-1H-pyrido[3,4-b][1,4]oxazin-6(7H)-yl)phenyl)amino)-4-(ethylamino)imidazo[2,1-f][1,2,4]triazine-7-carbonitrile], which IC50 is on record?
Answer: 0.99 nM

Question: With N#Cc1cc(Nc2nc(NC3CC3)c3ncc(C#N)n3n2)c(Cl)c(C2CCN(CC(O)CF)CC2)c1 (racemic) [Example 380, (+/−)-2-((2-chloro-5-cyano-3-(1-(3-fluoro-2-hydroxypropyl)-4-piperidinyl)phenyl)amino)-4-(cyclopropylamino)imidazo[2,1-f][1,2,4]triazine-7-carbonitrile] as the molecule, how does the IC50 read?
Answer: 0.65 nM

Question: CCNc1nc(Nc2cc(C(N)=O)cc(N3CC[C@H](NC(=O)OC)[C@@H](O)C3)c2Cl)nn2c(C#N)cnc12 (racemic) [Example 389, (+/−)-methyl ((3R,4R)-1-(5-carbamoyl-2-chloro-3-((7-cyano-4-(ethylamino)imidazo[2,1-f][1,2,4]triazin-2-yl)amino)phenyl)-3-hydroxypiperidin-4-yl)carbamate] was tested. Which IC50 did it give?
Answer: 3.39 nM

Question: How did the IC50 turn out when N#Cc1cc(Nc2nc(NC3CC3)c3ncc(C#N)n3n2)c(Cl)c(OC2CCN(C3COC3)C2)c1 (racemic) [Example 426, (+/−)-2-((2-chloro-5-cyano-3-((1-(oxetan-3-yl)pyrrolidin-3-yl)oxy)phenyl)amino)-4-(cyclopropylamino)imidazo[2,1-f][1,2,4]triazine-7-carbonitrile] was run?
Answer: 0.38 nM

Question: With CN1CC2CC1CN2c1cc(C#N)cc(Nc2nc(NCC(F)(F)F)c3ncc(C#N)n3n2)c1Cl (racemic) [Example 430, (+/−)-2-((2-chloro-5-cyano-3-((1R,4R)-5-methyl-2,5-diazabicyclo[2.2.1]heptan-2-yl)phenyl)amino)-4-((2,2,2-trifluoroethyl)amino)imidazo[2,1-f][1,2,4]triazine-7-carbonitrile] as the molecule, how does the IC50 read?
Answer: 0.97 nM
